Reference: the NIST ThermoML archive (doi:10.1016/j.jct.2011.06.020)

Test: xn = mol fraction of the nth substance listed
Settings: for surface tension liquid-gas: Tensiometer with plate; for viscosity / mass density: 101 kPa, Liquid; for viscosity: Capillary tube (Ostwald / Ubbelohde) method; for mass density: Vibrating tube method

CN1CCNCC1 [N-methylpiperazine] + O
Settings | mass density [kg/m3] | surface tension liquid-gas [mN/m] | viscosity [mPa·s]
293.15 K, x1 = 0.1 | – | 47.64 | –
293.15 K, x1 = 0.1998 | – | 43.4 | –
293.15 K, x1 = 0.2994 | – | 38.68 | –
293.15 K, x1 = 0.4073 | – | 35.89 | –
293.15 K, x1 = 0.4983 | – | 34.37 | –
293.15 K, x1 = 0.5934 | – | 33.18 | –
293.15 K, x1 = 0.6979 | – | 32.35 | –
293.15 K, x1 = 0.7994 | – | 31.68 | –
293.15 K, x1 = 0.8978 | – | 31.15 | –
293.15 K, x1 = 1 | – | 30.65 | –
298.15 K, x1 = 0.0521 | 1001.67 | – | 3.324
298.15 K, x1 = 0.0725 | 1005.26 | – | 5.564
298.15 K, x1 = 0.1039 | 1009.54 | – | 10.76
298.15 K, x1 = 0.2091 | 1001.33 | – | 35.24
298.15 K, x1 = 0.3101 | 981.31 | – | 36.42
298.15 K, x1 = 0.4096 | 962.21 | – | 23.48
298.15 K, x1 = 0.5109 | 946.41 | – | 13.36
298.15 K, x1 = 0.608 | 933.25 | – | 7.957
298.15 K, x1 = 0.7065 | 922.31 | – | 4.893
298.15 K, x1 = 0.8069 | 913.72 | – | 3.383
298.15 K, x1 = 0.8819 | 906.76 | – | 2.552
298.15 K, x1 = 1 | 898.81 | – | 1.87
303.15 K, x1 = 0.0521 | 999.31 | – | 2.752
303.15 K, x1 = 0.0725 | 1002.36 | – | 4.48
303.15 K, x1 = 0.1 | – | 46.73 | –
303.15 K, x1 = 0.1039 | 1005.87 | – | 8.223
303.15 K, x1 = 0.1998 | – | 42.1 | –
303.15 K, x1 = 0.2091 | 996.94 | – | 25.01
303.15 K, x1 = 0.2994 | – | 38.07 | –
303.15 K, x1 = 0.3101 | 976.94 | – | 25.74
303.15 K, x1 = 0.4073 | – | 35.25 | –
303.15 K, x1 = 0.4096 | 957.88 | – | 17.12
303.15 K, x1 = 0.4983 | – | 33.82 | –
303.15 K, x1 = 0.5109 | 942.03 | – | 10.17
303.15 K, x1 = 0.5934 | – | 32.73 | –
303.15 K, x1 = 0.608 | 928.88 | – | 6.246
303.15 K, x1 = 0.6979 | – | 31.78 | –
303.15 K, x1 = 0.7065 | 917.92 | – | 4.048
303.15 K, x1 = 0.7994 | – | 31.16 | –
303.15 K, x1 = 0.8069 | 909.33 | – | 2.835
303.15 K, x1 = 0.8819 | 902.37 | – | 2.188
303.15 K, x1 = 0.8978 | – | 30.7 | –
303.15 K, x1 = 1 | 894.43 | 30.34 | 1.618
308.15 K, x1 = 0.1 | – | 45.72 | –
308.15 K, x1 = 0.1998 | – | 40.74 | –
308.15 K, x1 = 0.2994 | – | 37.57 | –
308.15 K, x1 = 0.4073 | – | 34.71 | –
308.15 K, x1 = 0.4983 | – | 33.32 | –
308.15 K, x1 = 0.5934 | – | 32.06 | –
308.15 K, x1 = 0.6979 | – | 31.25 | –
308.15 K, x1 = 0.7994 | – | 30.8 | –
308.15 K, x1 = 0.8978 | – | 30.2 | –
308.15 K, x1 = 1 | – | 29.86 | –
313.15 K, x1 = 0.0521 | 994.17 | – | 1.987
313.15 K, x1 = 0.0725 | 996.21 | – | 3.048
313.15 K, x1 = 0.1 | – | 44.4 | –
313.15 K, x1 = 0.1039 | 998.34 | – | 5.183
313.15 K, x1 = 0.1998 | – | 39.61 | –
313.15 K, x1 = 0.2091 | 988.01 | – | 13.66
313.15 K, x1 = 0.2994 | – | 36.37 | –
313.15 K, x1 = 0.3101 | 968.03 | – | 13.97
313.15 K, x1 = 0.4073 | – | 34.03 | –
313.15 K, x1 = 0.4096 | 949.09 | – | 9.817
313.15 K, x1 = 0.4983 | – | 32.66 | –
313.15 K, x1 = 0.5109 | 933.18 | – | 6.25
313.15 K, x1 = 0.5934 | – | 31.58 | –
313.15 K, x1 = 0.608 | 920.04 | – | 4.118
313.15 K, x1 = 0.6979 | – | 30.76 | –
313.15 K, x1 = 0.7065 | 909.07 | – | 2.846
313.15 K, x1 = 0.7994 | – | 30.4 | –
313.15 K, x1 = 0.8069 | 900.47 | – | 2.091
313.15 K, x1 = 0.8819 | 893.54 | – | 1.673
313.15 K, x1 = 0.8978 | – | 29.71 | –
313.15 K, x1 = 1 | 885.62 | 29.23 | 1.302
318.15 K, x1 = 0.1 | – | 43.02 | –
318.15 K, x1 = 0.1998 | – | 38.31 | –
318.15 K, x1 = 0.2994 | – | 35.73 | –
318.15 K, x1 = 0.4073 | – | 33.43 | –
318.15 K, x1 = 0.4983 | – | 32.08 | –
318.15 K, x1 = 0.5934 | – | 30.99 | –
318.15 K, x1 = 0.6979 | – | 30.23 | –
318.15 K, x1 = 0.7994 | – | 29.83 | –
318.15 K, x1 = 0.8978 | – | 29.14 | –
318.15 K, x1 = 1 | – | 28.78 | –
323.15 K, x1 = 0.1 | – | 41.72 | –
323.15 K, x1 = 0.1998 | – | 37.83 | –
323.15 K, x1 = 0.2994 | – | 34.87 | –
323.15 K, x1 = 0.4073 | – | 32.92 | –
323.15 K, x1 = 0.4983 | – | 31.67 | –
323.15 K, x1 = 0.5934 | – | 30.57 | –
323.15 K, x1 = 0.6979 | – | 29.67 | –
323.15 K, x1 = 0.7994 | – | 29.24 | –
323.15 K, x1 = 0.8978 | – | 28.53 | –
323.15 K, x1 = 1 | – | 28.11 | –
325.15 K, x1 = 0.0521 | 988.47 | – | 1.5
325.15 K, x1 = 0.0725 | 989.64 | – | 2.188
325.15 K, x1 = 0.1039 | 990.55 | – | –
325.15 K, x1 = 0.2091 | 978.98 | – | 8.128
325.15 K, x1 = 0.3101 | 958.91 | – | 8.263
325.15 K, x1 = 0.4096 | 940.1 | – | –
325.15 K, x1 = 0.5109 | 924.16 | – | 4.171
325.15 K, x1 = 0.608 | 911.05 | – | 2.876
325.15 K, x1 = 0.7065 | 900.09 | – | 2.076
325.15 K, x1 = 0.8069 | 891.49 | – | 1.607
325.15 K, x1 = 0.8819 | 884.6 | – | 1.324
325.15 K, x1 = 1 | 876.71 | – | 1.065
333.15 K, x1 = 0.0521 | 982.25 | – | 1.18
333.15 K, x1 = 0.0725 | 982.66 | – | 1.651
333.15 K, x1 = 0.1 | – | 39.98 | –
333.15 K, x1 = 0.1039 | 982.5 | – | 2.474
333.15 K, x1 = 0.1998 | – | 36.47 | –
333.15 K, x1 = 0.2091 | 969.64 | – | 5.188
333.15 K, x1 = 0.2994 | – | 33.61 | –
333.15 K, x1 = 0.3101 | 949.58 | – | 5.244
333.15 K, x1 = 0.4073 | – | 31.68 | –
333.15 K, x1 = 0.4096 | 930.91 | – | 4.021
333.15 K, x1 = 0.4983 | – | 30.32 | –
333.15 K, x1 = 0.5109 | 914.98 | – | 2.894
333.15 K, x1 = 0.5934 | – | 29.76 | –
333.15 K, x1 = 0.608 | 901.91 | – | 2.109
333.15 K, x1 = 0.6979 | – | 28.76 | –
333.15 K, x1 = 0.7065 | 891 | – | 1.592
333.15 K, x1 = 0.7994 | – | 27.93 | –
333.15 K, x1 = 0.8069 | 882.42 | – | 1.277
333.15 K, x1 = 0.8819 | 875.57 | – | 1.09
333.15 K, x1 = 0.8978 | – | 27.7 | –
333.15 K, x1 = 1 | 867.73 | 27.17 | 0.9
343.15 K, x1 = 0.0521 | 975.55 | – | 0.942
343.15 K, x1 = 0.0725 | 975.29 | – | 1.281
343.15 K, x1 = 0.1039 | 974.18 | – | 1.827
343.15 K, x1 = 0.2091 | 960.1 | – | 3.514
343.15 K, x1 = 0.3101 | 940.04 | – | 3.54
343.15 K, x1 = 0.4096 | 921.51 | – | 2.81
343.15 K, x1 = 0.5109 | 905.65 | – | 2.12
343.15 K, x1 = 0.608 | 892.65 | – | 1.607
343.15 K, x1 = 0.7065 | 881.79 | – | 1.264
343.15 K, x1 = 0.8069 | 873.22 | – | 1.074
343.15 K, x1 = 0.8819 | 866.45 | – | 0.906
343.15 K, x1 = 1 | 858.66 | – | 0.768
